Laboratory results published in patent US20240166646A1, “1H-PYRROLO[2,3-B]PYRIDINE DERIVATIVES AS BCL-2 INHIBITORS FOR THE TREATMENT OF NEOPLASTIC AND AUTOIMMUNE DISEASES” (Newave Pharmaceutical Inc., priority 2020, published 2024).
Counter-ions that a name gives are not always drawn.

biological target: Bcl-2 (Homo sapiens (Human), UniProt P10415); test: Bcl-2 competition binding (fluorescence polarization) assay; settings: fluorescein labeled BH3 peptide 15 nM, Bcl-2 protein 30 nM, 3 hours of incubation at room temperature
Sequence (P10415 whole entry): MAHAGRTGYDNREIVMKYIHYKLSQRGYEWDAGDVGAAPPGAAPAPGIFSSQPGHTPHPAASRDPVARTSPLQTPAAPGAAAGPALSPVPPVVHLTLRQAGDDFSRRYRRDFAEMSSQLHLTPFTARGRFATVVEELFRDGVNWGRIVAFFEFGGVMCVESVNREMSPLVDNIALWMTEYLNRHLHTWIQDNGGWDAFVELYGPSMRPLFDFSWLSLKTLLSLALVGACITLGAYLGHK
Protocol: Biological Example 1: Bcl-2 Competition Binding (Fluorescence Polarization) Assay
The fluorescence-labeled 23 amino acid peptide BH3 was purchased from CalBiochem ([…]). […] This binding assay was performed in 96-well plate and with each assay contained 15 and 30 nM of labeled peptide and purified Bcl-2 protein (purchased from R&D Systems, Inc). The assay buffer contained 20 mM Hepes (pH 7.0), 50 mM KCl, 5 mM MgCl2, 20 mM Na2MoO4, 0.1 mg/mi Bovine Gamma Globulin and 0.01% NP40. Compounds were diluted in DMS0 and added to the final assay with concentration range from 20 μM to 2 nM. The polarization degree (mP) value was determined by BioTek Synergy II with background subtraction after 3 hours of incubation at room temperature. IC50 was calculated using Prism software with sigmoidal dose-response curve fitting. ABT-737 was used as reference compound. Such assays, carried out with a range of doses of test compounds, allowed the determination of an approximate IC50 value.

In order of falling IC50:
1. O=C(NS(=O)(=O)c1ccc(NCC2CCOCC2)c([N+](=O)[O-])c1)c1ccc(N2CCC3(CC2)CC(N2CCC[C@H]2c2ccccc2-c2cccnc2)C3)cc1N1c2cc3cc[nH]c3nc2O[C@@H]2COC[C@H]21 [Example 13, 2-[(11R,15S)-13,16-dioxa-2,4,10-triazatetracyclo[7.7.0.0^{3,7}.0^{11,15}]hexadeca-1(9),2,5,7-tetraen-10-yl]-N-{3-nitro-4-[(oxan-4-ylmethyl)amino]benzenesulfonyl}-4-{2-[(2S)-2-[2-(pyridin-3-yl)phenyl]pyrrolidin-1-yl]-7-azaspiro[3.5]nonan-7-yl}benzamide hydrochloride]  2.42 nM
2. O=C(NS(=O)(=O)c1ccc(NCC2CCOCC2)c([N+](=O)[O-])c1)c1ccc(N2CCC3(CC2)CC(N2CCC[C@H]2c2ccccc2-c2ccncc2)C3)cc1N1c2cc3cc[nH]c3nc2O[C@@H]2COC[C@H]21 [Example 14, 2-[(11R,15S)-13,16-dioxa-2,4,10-triazatetracyclo[7.7.0.0^{3,7}.0^{11,15}]hexadeca-1(9),2,5,7-tetraen-10-yl]-N-{3-nitro-4-[(oxan-4-ylmethyl)amino]benzenesulfonyl}-4-{2-[(2S)-2-[2-(pyridin-4-yl)phenyl]pyrrolidin-1-yl]-7-azaspiro[3.5]nonan-7-yl}benzamide hydrochloride]  0.74 nM
3. O=C(NS(=O)(=O)c1ccc(NCC2CCOCC2)c([N+](=O)[O-])c1)c1ccc(N2CCC3(CC2)CC(N2CCC[C@H]2c2ccccc2-c2ccccn2)C3)cc1N1c2cc3cc[nH]c3nc2O[C@@H]2COC[C@H]21 [Example 18, 2-[(11R,15S)-13,16-dioxa-2,4,10-triazatetracyclo[7.7.0.0^{3,7}.0^{11,15}]hexadeca-1(9),2,5,7-tetraen-10-yl]-N-{3-nitro-4-[(oxan-4-ylmethyl)amino]benzenesulfonyl}-4-{2-[(2S)-2-[2-(pyridin-2-yl)phenyl]pyrrolidin-1-yl]-7-azaspiro[3.5]nonan-7-yl}benzamide]  0.42 nM
4. O=C(NS(=O)(=O)c1ccc(NCC2CCOCC2)c([N+](=O)[O-])c1)c1ccc(N2CCC3(CC2)CC(N2CCC[C@H]2c2ccccc2C(F)(F)F)C3)cc1N1c2cc3cc[nH]c3nc2O[C@@H]2COC[C@H]21 [Example 15, 2-[(11R,15S)-13,16-dioxa-2,4,10-triazatetracyclo[7.7.0.0^{3,7}.0^{11,15}]hexadeca-1(9),2,5,7-tetraen-10-yl]-N-{3-nitro-4-[(oxan-4-ylmethyl)amino]benzenesulfonyl}-4-{2-[(2S)-2-[2-(trifluoromethyl)phenyl]pyrrolidin-1-yl]-7-azaspiro[3.5]nonan-7-yl}benzamide hydrochloride]  0.2 nM
5. O=C(NS(=O)(=O)c1ccc(NCC2CCOCC2)c([N+](=O)[O-])c1)c1ccc(N2CCC3(CC2)CC(N2CCC[C@H]2c2ccccc2)C3)cc1N1c2cc3cc[nH]c3nc2O[C@@H]2COC[C@H]21 [Example 12, 2-[(11R,15S)-13,16-dioxa-2,4,10-triazatetracyclo[7.7.0.0^{3,7}.0^{11,15}]hexadeca-1(9),2,5,7-tetraen-10-yl]-N-{3-nitro-4-[(oxan-4-ylmethyl)amino]benzenesulfonyl}-4-{2-[(2S)-2-phenylpyrrolidin-1-yl]-7-azaspiro[3.5]nonan-7-yl}benzamide hydrochloride]  0.161 nM
6. COc1ccccc1[C@@H]1CCCN1C1CC2(CCN(c3ccc(C(=O)NS(=O)(=O)c4ccc(NCC5CCOCC5)c([N+](=O)[O-])c4)c(N4c5cc6cc[nH]c6nc5O[C@@H]5COC[C@H]54)c3)CC2)C1 [Example 16, 2-[(11R,15S)-13,16-dioxa-2,4,10-triazatetracyclo[7.7.0.0^{3,7}.0^{11,15}]hexadeca-1(9),2,5,7-tetraen-10-yl]-4-{2-[(2S)-2-(2-methoxyphenyl)pyrrolidin-1-yl]-7-azaspiro[3.5]nonan-7-yl}-N-{3-nitro-4-[(oxan-4-ylmethyl)amino]benzenesulfonyl}benzamide]  0.09 nM
